Data published in ChEMBL document CHEMBL5236574, “Identification of a new and diverse set of Mycobacterium tuberculosis uracil-DNA glycosylase (MtUng) inhibitors using structure-based virtual screening: Experimental validation and molecular dynamics studies” (Bioorg Med Chem Lett, 2022).

Molecular target: not listed separately
Test: Inhibition of Mycobacterium tuberculosis uracil-DNA glycosylase by fluorescence based assay

| SMILES | IC50 [mM] |
| --- | --- |
| CC(C)(Cc1cccc(Cl)c1)C(=O)NCCc1n[nH]c(=O)[nH]1 | 4.08 |
| CC(=O)N(CC(O)CO)c1c(I)c(C(=O)NCC(O)CO)c(I)c(C(=O)NCC(O)CO)c1I (stereo not given) [IOHEXOL] | 0.6 |
| CC(C)(C)[C@H](COc1ccccc1F)NC(=O)c1nc(=O)[nH][nH]1 | 11.3 |
| Cc1[nH]c(=O)[nH]c(=O)c1CC(=O)N(Cc1ccc2c(c1)OCO2)Cc1ccccc1F | 0.14 |
| Cc1ccc(CCOc2ccc(C[C@@H]3SC(=O)NC3=O)cc2)nc1 | 8.82 |
| O=C(NCc1nc2ccc(Cl)cc2[nH]1)c1c[nH]c(=O)[nH]c1=O | 6.53 |
| CC(C)c1ccc(OCC(=O)Nc2c[nH]c(=O)[nH]c2=O)cc1 | 7.63 |
| CCC(C)(C)C(=O)O[C@H]1C[C@@H](C)C=C2C=C[C@H](C)[C@H](CC[C@@H]3C[C@@H](O)CC(=O)O3)[C@H]21 [SIMVASTATIN] | 1.04 |
| Cc1ccc(-c2csc3c(=O)n(CC#N)cnc23)cc1 | 7.93 |
| O=C(Nc1c[nH]c(=O)[nH]c1=O)c1cccc(N2C(=O)CCC2=O)c1 | 2.12 |
| COc1ccc(C(=O)Nc2c[nH]c(=O)[nH]c2=O)cc1[N+](=O)[O-] | 15.3 |
| O=c1cc(Nc2ccc(N3CCCCC3)cc2)[nH]c(=O)[nH]1 | 0.8 |
| O=C1CN(/N=C/c2ccc([N+](=O)[O-])o2)C(=O)N1 [NITROFURANTOIN] | 0.98 |

Test system: not listed separately
Test: Inhibition of Mycobacterium tuberculosis uracil-DNA glycosylase expressed in Escherichia coli BL21 (DE3) rosetta cells incubated for 10 sec under shaking condition and measured every 2 mins for 40 mins by fluorescence based assay

| SMILES | IC50 [mM] |
| --- | --- |
| O=c1cc[nH]c(=O)[nH]1 [URACIL] | 2.05 |

Test system: Mycobacterium tuberculosis
Test: Potency index, ratio of uracil IC50 to test compound IC50 for inhibition of Mycobacterium tuberculosis uracil-DNA glycosylase

| SMILES | Ratio IC50 |
| --- | --- |
| Cc1[nH]c(=O)[nH]c(=O)c1CC(=O)N(Cc1ccc2c(c1)OCO2)Cc1ccccc1F | 15 |
